The test system of the first assay is HBV rcDNA in HepDE19 cells. Description: HepDE19 assay with bDNA quantitation of HBV rcDNA. Type of assay: cell-based, hepatitis B virus. As to conditions: Hepatitis B virus, HepDE19, 168 h, HepDE19 cells, 7 day incubation, rcDNA measured by Quantigene 2.0 bDNA assay; top concentration 25 µM; read-out: DE-19bDNA EC50. The method, then:
HepDE19 Assay With bDNA Quantitation of HBV rcDNA
HepDE19 (50,000 cells/well) were plated in 96-well collagen-coated tissue-culture treated microtiter plates in DMEM/F12 medium supplemented with 10% fetal bovine serum, 1% penicillin-streptomycin and 1 µg/mL tetracycline and incubated in a humidified incubator at 37° C. and 5% CO2 overnight. Next day, the cells were switched to fresh medium without tetracycline and incubated for 4 hours at 37° C. and 5% CO2. […] The final DMSO concentration in the assay was 0.5%. The plates were incubated for 7 days in a humidified incubator at 37° C. and 5% CO2. Following a 7 day-incubation, the level of rcDNA present in the inhibitor-treated wells was measured using a Quantigene 2.0 bDNA assay kit (Affymetrix, Santa Clara, CA) with HBV specific custom probe set and manufacturers instructions. Concurrently, the effect of compounds on cell viability was assessed using replicate plates, plated at a density of 5,000 cells/well and incubated for 4 days, to determine the ATP content as a measure of cell viability using the cell-titer glo reagent (CTG; Promega Corporation, Madison, WI) as per manufacturer’s instructions.
Representative compounds of the disclosure were tested for their abilities to inhibit formation of relaxed circular DNA (rcDNA) in a HepDE19 assay, as described elsewhere herein.
As for `CC(c1n[nH]c(=O)c2ccccc12)N(C)C(=O)Nc1ccc(F)c(Cl)c1` (racemic) [Compound 1, 3-(3-chloro-4-fluoro-phenyl)-1-methyl-1-[1-(4-oxo-3H-phthalazin-1-yl)ethyl]urea], the EC50 was 240 nM.

Consider `CC(C)CN(C(=O)Nc1ccc(F)c(Cl)c1)C(C)c1n[nH]c(=O)c2ccccc12` (racemic) [Compound 2, 3-(3-chloro-4-fluoro-phenyl)-1-isobutyl-1-[1-(4-oxo-3H-phthalazin-1-yl)ethyl]urea], for which the EC50 came to 10 nM.

With `CC(C)CN(C(=O)Nc1ccc(F)c(Cl)c1)C(C)c1nn(C)c(=O)c2ccccc12` (racemic) [Compound 8, 3-(3-chloro-4-fluorophenyl)-1-isobutyl-1-(1-(3-methyl-4-oxo-3,4-dihydrophthalazin-1-yl)ethyl)urea], the EC50 was 20 nM.

Consider `CC(C)CN(C(=O)Nc1ccc(F)cc1)C(C)c1nn(C)c(=O)c2ccccc12` (racemic) [Compound 9, 3-(4-fluorophenyl)-1-isobutyl-1-(1-(3-methyl-4-oxo-3,4-dihydrophthalazin-1-yl)ethyl)urea], for which the EC50 turned out to be 30 nM.

For the compound `CC(C)CN(C(=O)Nc1ccc(F)c(Cl)c1)C(C)c1n[nH]c(=O)c2cc(Cl)ccc12` (racemic) [Compound 10, 3-(3-chloro-4-fluorophenyl)-1-(1-(6-chloro-4-oxo-3,4-dihydrophthalazin-1-yl)ethyl)-1-isobutylurea], the EC50 was 20 nM.

Consider `CC(C)CN(C(=O)Nc1ccc(F)cc1)C(C)c1n[nH]c(=O)c2cc(Cl)ccc12` (racemic) [Compound 11, 1-(1-(6-chloro-4-oxo-3,4-dihydrophthalazin-1-yl)ethyl)-3-(4-fluorophenyl)-1-isobutylurea], for which the EC50 amounted to 40 nM.

On to `CC(c1n[nH]c(=O)c2cc(Cl)ccc12)N(C)C(=O)Nc1ccc(F)c(Cl)c1` (racemic) [Compound 12, 3-(3-chloro-4-fluorophenyl)-1-(1-(6-chloro-4-oxo-3,4-dihydrophthalazin-1-yl)ethyl)-1-methylurea], for which the EC50 worked out at 260 nM.

With `CC(c1n[nH]c(=O)c2cc(Cl)ccc12)N(CCCO)C(=O)Nc1ccc(F)c(Cl)c1` (racemic) [Compound 13, 3-(3-chloro-4-fluorophenyl)-1-(1-(6-chloro-4-oxo-3,4-dihydrophthalazin-1-yl)ethyl)-1-(3-hydroxypropyl)urea], the EC50 was 22 nM.

Take `CC(c1n[nH]c(=O)c2cc(Cl)ccc12)N(CCCO)C(=O)Nc1ccc(F)cc1` (racemic) [Compound 14, 1-(1-(6-chloro-4-oxo-3,4-dihydrophthalazin-1-yl)ethyl)-3-(4-fluorophenyl)-1-(3-hydroxypropyl)urea]: the EC50 came to 110 nM.

Turning to `CC(C)CN(C(=O)Nc1ccc(F)c(Cl)c1)C(C)c1n[nH]c(=O)c2cc(F)ccc12` (racemic) [Compound 15, 3-(3-chloro-4-fluorophenyl)-1-(1-(6-fluoro-4-oxo-3,4-dihydrophthalazin-1-yl)ethyl)-1-isobutylurea], the EC50 was determined as 10 nM.

Take `CC(C)CN(C(=O)Nc1ccc(F)cc1)C(C)c1n[nH]c(=O)c2cc(F)ccc12` (racemic) [Compound 16, 1-(1-(6-fluoro-4-oxo-3,4-dihydrophthalazin-1-yl)ethyl)-3-(4-fluorophenyl)-1-isobutylurea]: the EC50 was determined as 16 nM.

As to `CC(c1n[nH]c(=O)c2cc(F)ccc12)N(C)C(=O)Nc1ccc(F)c(Cl)c1` (racemic) [Compound 17, 3-(3-chloro-4-fluorophenyl)-1-(1-(6-fluoro-4-oxo-3,4-dihydrophthalazin-1-yl)ethyl)-1-methylurea], the EC50 is 81 nM.

Consider `CC(c1n[nH]c(=O)c2cc(F)ccc12)N(C)C(=O)Nc1ccc(F)cc1` (racemic) [Compound 18, 1-(1-(6-fluoro-4-oxo-3,4-dihydrophthalazin-1-yl)ethyl)-3-(4-fluorophenyl)-1-methylurea], for which the EC50 was 500 nM.

For the compound `CC(C)CN(C(=O)Nc1ccc(F)cc1)C(C)c1n[nH]c(=O)c2ccccc12` (racemic) [Compound 19, 3-(4-fluorophenyl)-1-isobutyl-1-(1-(4-oxo-3,4-dihydrophthalazin-1-yl)ethyl)urea], the concentration giving a half-maximal response (EC50) is 48 nM.

`CC(c1nn(C)c(=O)c2cc(F)c(F)cc12)N(C)C(=O)Nc1ccc(F)c(Cl)c1` (racemic) [Compound 22, 3-(3-chloro-4-fluoro-phenyl)-1-[1-(6,7-difluoro-3-methyl-4-oxo-phthalazin-1-yl)ethyl]-1-methyl-urea]: the EC50 was 26 nM.

In the case of `CC(C)CN(C(=O)Nc1ccc(F)c(Cl)c1)C(C)c1nn(C)c(=O)c2cc(F)c(F)cc12` (racemic) [Compound 23, 3-(3-chloro-4-fluorophenyl)-1-(1-(6,7-difluoro-3-methyl-4-oxo-3,4-dihydrophthalazin-1-yl)ethyl)-1-isobutylurea], the EC50 was 3 nM.

For the compound `CC(C)CN(C(=O)Nc1ccc(F)cc1)C(C)c1nn(C)c(=O)c2cc(F)c(F)cc12` (racemic) [Compound 24, 1-(1-(6,7-difluoro-3-methyl-4-oxo-3,4-dihydrophthalazin-1-yl)ethyl)-3-(4-fluorophenyl)-1-isobutylurea], the concentration giving a half-maximal response (EC50) came to 7 nM.

In the case of `CC(c1nn(C)c(=O)c2cc(F)c(F)cc12)N(CCCO)C(=O)Nc1ccc(F)c(Cl)c1` (racemic) [Compound 25, 3-(3-chloro-4-fluorophenyl)-1-(1-(6,7-difluoro-3-methyl-4-oxo-3,4-dihydrophthalazin-1-yl)ethyl)-1-(3-hydroxypropyl)urea], the EC50 was 10 nM.

As for `CC(c1nn(C)c(=O)c2cc(F)c(F)cc12)N(CCCO)C(=O)Nc1ccc(F)cc1` (racemic) [Compound 26, 1-(1-(6,7-difluoro-3-methyl-4-oxo-3,4-dihydrophthalazin-1-yl)ethyl)-3-(4-fluorophenyl)-1-(3-hydroxypropyl)urea], the EC50 worked out at 31 nM.

On to `CC(C)CN(C(=O)Nc1ccc(F)c(Cl)c1)C(C)c1n[nH]c(=O)c2cc(F)c(F)cc12` (racemic) [Compound 27, 3-(3-chloro-4-fluorophenyl)-1-(1-(6,7-difluoro-4-oxo-3,4-dihydrophthalazin-1-yl)ethyl)-1-isobutylurea], for which the EC50 worked out at 2 nM.

Turning to `CC(c1n[nH]c(=O)c2cc(F)c(F)cc12)N(C)C(=O)Nc1ccc(F)c(Cl)c1` (racemic) [Compound 29, 3-(3-chloro-4-fluorophenyl)-1-(1-(6,7-difluoro-4-oxo-3,4-dihydrophthalazin-1-yl)ethyl)-1-methylurea], the 50% effective concentration (EC50) was determined as 23 nM.

As to `CC(c1nn(C)c(=O)c2cc(F)c(F)cc12)N(CCS(=O)(=O)NC(=O)Nc1ccc(F)c(Cl)c1)C(=O)Nc1ccc(F)c(Cl)c1` (racemic) [Compound 30, 3-(3-chloro-4-fluoro-phenyl)-1-[2-[(3-chloro-4-fluorophenyl)carbamoylsulfamoyl]ethyl]-1-[1-(6,7-difluoro-3-methyl-4-oxo-phthalazin-1-yl)ethyl]urea], the EC50 was 58 nM.

For `CC(C)CN(C(=O)NC1CC1)C(C)c1nn(C)c(=O)c2cc(F)c(F)cc12` (racemic) [Compound 33, 3-cyclopropyl-1-(1-(6,7-difluoro-3-methyl-4-oxo-3,4-dihydrophthalazin-1-yl)ethyl)-1-isobutylurea], the EC50 stood at 6300 nM.

Regarding `CCN(C(=O)c1cc2ccccc2[nH]1)C(C)c1n[nH]c(=O)c2cc(F)c(F)cc12` (racemic) [Compound 48, N-(1-(6,7-difluoro-4-oxo-3,4-dihydrophthalazin-1-yl)ethyl)-N-ethyl-1H-indole-2-carboxamide], the EC50 was found to be 60 nM.

With `CCN(C(=O)c1cc2c(F)c(F)ccc2[nH]1)C(C)c1n[nH]c(=O)c2cc(F)c(F)cc12` (racemic) [Compound 49, N-(1-(6,7-difluoro-4-oxo-3,4-dihydrophthalazin-1-yl)ethyl)-N-ethyl-4,5-difluoro-1H-indole-2-carboxamide], the 50% effective concentration (EC50) amounted to 25 nM.

Staying with this assay, now noted: Hepatitis B virus, HepDE19, 168 h, read-out: DE-19bDNA EC50.
As for `CC(C)CN(C(=O)Nc1ccccc1)C(C)c1n[nH]c(=O)c2cc(F)c(F)cc12` (racemic) [Compound 28, 1-(1-(6,7-difluoro-4-oxo-3,4-dihydrophthalazin-1-yl)ethyl)-1-isobutyl-3-phenylurea], the EC50 turned out to be 12 nM.

Regarding `CC(C)CN(C(=O)Nc1ccccc1)C(C)c1nn(C)c(=O)c2cc(F)c(F)cc12` (racemic) [Compound 34, 1-(1-(6,7-difluoro-3-methyl-4-oxo-3,4-dihydrophthalazin-1-yl)ethyl)-1-isobutyl-3-phenylurea], the EC50 is 10 nM.

As for `CC(C)CN(C(=O)NC1CCCC1)C(C)c1nn(C)c(=O)c2cc(F)c(F)cc12` (racemic) [Compound 35, 3-cyclopentyl-1-(1-(6,7-difluoro-3-methyl-4-oxo-3,4-dihydrophthalazin-1-yl)ethyl)-1-isobutylurea], the EC50 was 6900 nM.

In the case of `CCN(C(=O)c1cc2cc(F)ccc2[nH]1)C(C)c1n[nH]c(=O)c2cc(F)c(F)cc12` (racemic) [Compound 47, N-(1-(6,7-difluoro-4-oxo-3,4-dihydrophthalazin-1-yl)ethyl)-N-ethyl-5-fluoro-1H-indole-2-carboxamide], the EC50 came to 41 nM.

What is called EC50 is the concentration needed to bring the measured effect to its halfway point.

The record behind these values is patent US20230312481A1, “SUBSTITUTED (PHTHALAZIN-1-YLMETHYL)UREAS, SUBSTITUTED N-(PHTHALAZIN-1-YLMETHYL)AMIDES, AND ANALOGUES THEREOF” (priority 2020, published 2023).
